{
  "source": "the supplement of paper PMC10307832",
  "assay_in_all_cases": "relative viability (nuclei count vs DMSO), 5 days (fraction); higher = more cells survive",
  "key": {"[1]": {"compound": "CC1CC(=O)N(C2=CN=C(N=C2N1C3CCCC3)NC4=C(C=C(C=C4)C(=O)NC5CCN(CC5)C)OC)C [NPK76-II-72-1] + COc1cc2c(Oc3ccc(NC(=O)C4(C(=O)Nc5ccc(F)cc5)CC4)cc3F)ccnc2cc1OCCCN1CCOCC1 [Foretinib] (partner 0.25 µM)", "summary_of_the_method": "(§1)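 After 5 days of treatment, lung cancer cells in 1536-well plates were fixed and stained in a single step (final 0.05% Triton X-100, 1% formaldehyde, 1 ug/ml Hoechst) and their nuclei counted on 4× images. Treatment had been applied by pin tool the day after seeding as one drug alone or as a fixed anchor-drug dose with five library-drug doses (not always all listed) in √10 steps. Relative viability is the nuclei count of treated wells divided by that of vehicle wells, and values are medians of duplicate plates.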"}, "BI-2536 + Bortezomib": {"compound": "CC[C@@H]1C(=O)N(C)c2cnc(Nc3ccc(C(=O)NC4CCN(C)CC4)cc3OC)nc2N1C1CCCC1 [BI-2536] + CC(C)C[C@H](NC(=O)[C@H](Cc1ccccc1)NC(=O)c1cnccn1)B(O)O [Bortezomib] (partner 0.002 µM)", "summary_of_the_method": "as §1"}, "BI-2536 + Crizotinib": {"compound": "CC[C@@H]1C(=O)N(C)c2cnc(Nc3ccc(C(=O)NC4CCN(C)CC4)cc3OC)nc2N1C1CCCC1 [BI-2536] + C[C@@H](Oc1cc(-c2cnn(C3CCNCC3)c2)cnc1N)c1c(Cl)ccc(F)c1Cl [Crizotinib] (partner 1 µM)", "summary_of_the_method": "as §1"}, "[2]": {"compound": "CC1CC(=O)N(C2=CN=C(N=C2N1C3CCCC3)NC4=C(C=C(C=C4)C(=O)NC5CCN(CC5)C)OC)C [NPK76-II-72-1] + Nc1nc2[nH]cc(CCc3ccc(C(=O)N[C@@H](CCC(=O)O)C(=O)O)cc3)c2c(=O)[nH]1 [Pemetrexed] (partner 0.2 µM)", "summary_of_the_method": "as §1"}},
  "data": [
    {"cell line": "UMC-11", "values": [
      {"measurement": "relative viability", "setting": "[1]; first compound 0.01 µM", "value": 0.988},
      {"measurement": "relative viability", "setting": "[1]; first compound 0.03162 µM", "value": 1.06},
      {"measurement": "relative viability", "setting": "[1]; first compound 0.1 µM", "value": 1.06},
      {"measurement": "relative viability", "setting": "[1]; first compound 1 µM", "value": 0.95},
      {"measurement": "relative viability", "setting": "BI-2536 + Bortezomib; first compound 0.01 µM", "value": 0.601},
      {"measurement": "relative viability", "setting": "BI-2536 + Bortezomib; first compound 0.03162 µM", "value": 0.414},
      {"measurement": "relative viability", "setting": "BI-2536 + Bortezomib; first compound 0.1 µM", "value": 0.175},
      {"measurement": "relative viability", "setting": "BI-2536 + Bortezomib; first compound 0.3162 µM", "value": 0.134},
      {"measurement": "relative viability", "setting": "BI-2536 + Bortezomib; first compound 1 µM", "value": 0.104},
      {"measurement": "relative viability", "setting": "BI-2536 + Crizotinib; first compound 0.01 µM", "value": 0.48},
      {"measurement": "relative viability", "setting": "BI-2536 + Crizotinib; first compound 0.03162 µM", "value": 0.237},
      {"measurement": "relative viability", "setting": "BI-2536 + Crizotinib; first compound 0.1 µM", "value": 0.148},
      {"measurement": "relative viability", "setting": "BI-2536 + Crizotinib; first compound 0.3162 µM", "value": 0.133},
      {"measurement": "relative viability", "setting": "BI-2536 + Crizotinib; first compound 1 µM", "value": 0.1},
      {"measurement": "relative viability", "setting": "[2]; first compound 0.01 µM", "value": 0.79},
      {"measurement": "relative viability", "setting": "[2]; first compound 0.03162 µM", "value": 0.869},
      {"measurement": "relative viability", "setting": "[2]; first compound 0.1 µM", "value": 0.768},
      {"measurement": "relative viability", "setting": "[2]; first compound 0.3162 µM", "value": 0.728},
      {"measurement": "relative viability", "setting": "[2]; first compound 1 µM", "value": 0.697}
    ]}
  ]
}
